From US11447498B2, “Fused tetracyclic compounds and uses thereof in medicine” (SUNSHINE LAKE PHARMA CO., LTD., priority 2018, dated 2022) come the findings set out here.

For data set [1], the system named is HBsAg secretion. Kind of data set: Inhibition experiment on HBsAg secretion (HepG 2,2,15 cells, ELISA). The class given is cell-based. The note with it: Hepatitis B virus, HepG2.2.15, read-out: HBsAg IC50. From the text: (§1) The chromosomal integration of HepG2,2,15 cells (SELLS, PNAS, 1987 and SELLS, JV, 1988) has a complete HBV genome and stably expresses viral RNA and viral proteins. HepG2,2,15 cells are capable of secreting mature hepatitis B virus particles and HBsAg into the culture medium. Virus particles DNA and HBsAg secreted by HepG 2,2,15 cells can be quantified by qPCR and ELISA, and the effects of compounds on viral replication and HBsAg secretion can be detected.
HepG 2,2,15 cells were inoculated with 8,000 per cell to 96-well cell culture plates in duplicate, and were cultured for 3 days until the cells grew to full-hole. Cells were treated with 4-fold serial dilutions of compounds for 10 days, and were given once every other day. The final concentration of DMSO in all pores was 0.5% and DMSO was used as a drug-free control. The supernatant was collected for quantitative detection of HBsAg on day 11.
The level of HBsAg secreted by the cells after treatment of the compound was detected by ELISA method, and the method used a hepatitis B surface antigen diagnostic kit (Shanghai Kehua Biotech Co., Ltd. S10910113). 25 μL of the supernatant to be assayed (PBS was diluted to 75 μL) was added to per well in the ELISA plate, and the kit positive control and negative control were set. The ELIS A plate was blocked with a cover paper and incubated at 37° C. for 60 minutes. The ELISA plate was taken out, and the cover paper was teared off, and 50 μL of enzyme conjugate was added to each well. The ELISA plate was oscillated on the shaker for 10 seconds, blocked with a cover paper and incubated at 37° C. for 30 minutes. The ELISA plate was taken out, the cover paper was teared off, and the ELISA plate was washed 5 times: each time the liquid in the hole was discarded, and the washing liquid was filled into the holes, left to stand for 60 seconds, dried, and the liquid residue was patted to dry on the absorbent paper. A freshly prepared mixture of Developer A and Developer B was added to all wells immediately after washing: 100 μL per well. The ELISA plate was oscillated on the shaker for 10 seconds, blocked with a cover paper and incubated at 37° C. for 30 minutes. 50 μL of stop solution was added to all wells. Absorbance was read on the Envision plate reader at a wavelength of 450 nm.
Concentration-HBsAg OD450 was processed using Graphpad Prism 5 software, and IC50 of compounds inhibiting against HBsAg secretion was calculated by four-parameter nonlinear regression model.

Data set [2] can be described thus: PK test experiments in SD rats. Details: VSS: unit not given here. Type of data set: in vivo. As to the method:
(§2) The PK test in vivo of the compound of the present invention in SD rats (body weight 200-250 g, male, age 2-3 months, 3 per group with oral administration, 3 per group with intravenous injection) The SD rat was administered orally with 2.5 mg/kg or 5 mg/kg of the compound tested or intravenously injected with 0.5 mg/kg or 1 mg/kg of the compound tested. After administration, venous blood was collected at time points (0.083, 0.25, 0.5, 1, 2, 5, 7 and 24 hours) and collected in an anticoagulation tube to which EDTA-K2 was added. Plasma samples were extracted by liquid-liquid extraction and quantitatively analyzed by multiple reaction ion monitoring (MRM) on a triple quadrupole tandem mass spectrometer. Pharmacokinetic parameters were calculated using a noncompartmental method by WinNonLin 6.3 software.

Data set [3] is described as follows: PK test experiments in beagle dogs. Type of data set: in vivo. The note with it: for AUC(0-inf) / AUC(0-t) / Cmax / clearance: male, dog, plasma. As to the method: as §2, with “beagle dogs” for “SD rats”, “10-12 kg,” for “200-250 g,”, “10-12” for “2-3”, “beagle dog” for “SD rat”, “administered orally with 2.5 mg/kg or 5 mg/kg of the compound tested or intravenously injected with 0.5 mg/kg or 1 mg/kg of the compound tested.” left out, “4, 6, 8” for “5, 7”

Data set [4] relates to HBV DNA replication. As to the kind of experiment: Inhibition experiment on HBV virus replication (HepG 2,2,15 cells, supernatant HBV DNA by qPCR). Type of data set: cell-based. The note with it: Hepatitis B virus, HepG2.2.15, 10 days treatment, supernatant HBV DNA on day 11.
Text: as §1
HepG 2,2,15 cells were inoculated with 8,000 per cell to 96-well cell culture plates in duplicate, and were cultured for 3 days until the cells grew to full-hole. Cells were treated with 4-fold serial dilutions of compounds for 10 days, and were given once every other day. The final concentration of DMSO in all pores was 0.5% and DMSO was used as a drug-free control. The supernatant was collected for quantitative detection of HBV DNA on day 11.
Viral genomic DNA was detected by qPCR method, and HBV primers were as follows: […]
The SYBR Premix Ex Taq D-Takara DRR081S kit was used, and 1 μL of cell culture supernatant was used as a template. A standard curve was made using a plasmid containing the HBV genome, and the viral copy number was calculated using the standard curve. Concentration-virus copy number was processed using Graphpad Prism 5 software, and IC50 of compounds inhibiting virus replication was calculated by four-parameter nonlinear regression model.

Turning to `CC(C)N1Cc2cc(OCCC3CC3)c3c(c2-c2cc(=O)c(C(=O)O)cn21)CCO3` [Example 15, 4-(2-Cyclopropylethoxy)-7-isopropyl-11-oxo-2,6,7,11-tetrahydro-1H-furo [2,3-h]pyrido[2,1-a]phthalazine-10-carboxylic Acid], the IC50 in data set [1] worked out at 3.13 nM; in data set [4], 1.81 nM. For the same molecule, the VSS in data set [2] (IV, 1 mg/kg) amounted to 0.9; in data set [3] (IV, 0.5 mg/kg) it was 0.23 kg⁻¹. The F in data set [2] (PO, 5 mg/kg) is reported as 157.9%; in data set [3] (PO, 2.5 mg/kg), 102.2%. In addition, the AUC(0-inf) worked out at 2280 ng·h/mL in data set [2] (male, rat, plasma, IV, 1 mg/kg); 17800 ng·h/mL in data set [2] (male, rat, plasma, PO, 5 mg/kg); 12200 ng·h/mL in data set [3] (IV, 0.5 mg/kg); 62400 ng·h/mL in data set [3] (PO, 2.5 mg/kg). For the same molecule, the AUC(0-t) in data set [2] (male, rat, plasma, IV, 1 mg/kg) was found to be 2140 ng·h/mL; in data set [2] (male, rat, plasma, PO, 5 mg/kg), 17700 ng·h/mL; in data set [3] (IV, 0.5 mg/kg), 11900 ng·h/mL; in data set [3] (PO, 2.5 mg/kg) it was 60500 ng·h/mL. Also, the Cmax in data set [2] (male, rat, plasma, IV, 1 mg/kg) turned out to be 1500 ng/mL; in data set [2] (male, rat, plasma, PO, 5 mg/kg) it was 2170 ng/mL; in data set [3] (IV, 0.5 mg/kg) it was 2010 ng/mL; in data set [3] (PO, 2.5 mg/kg), 7090 ng/mL. Also, the clearance in data set [2] (male, rat, plasma, IV, 1 mg/kg) amounted to 7.32 mL/min/kg; in data set [3] (IV, 0.5 mg/kg) it was 0.69 mL/min/kg.

As to `CC(C)N1Cc2cc(-c3cnn(C(F)F)c3)c3c(c2-c2cc(=O)c(C(=O)O)cn21)CCO3` [Example 43, 4-(1-(Difluoromethyl)-1H-pyrazol-4-yl)-7-isopropyl-11-oxo-2,6,7,11-tetrahydro-1H-furo[2,3-h]pyrido[2,1-a]phthalazine-10-carboxylic Acid], in data set [1], the IC50 was 0.98 nM. Also, in data set [3] (IV, 0.5 mg/kg), the VSS is 0.48 kg⁻¹, the AUC(0-inf) came to 9990 ng·h/mL, the AUC(0-t) came to 9030 ng·h/mL and the highest level (Cmax) was 1080 ng/mL. The clearance in data set [3] (IV, 0.5 mg/kg) worked out at 0.83 mL/min/kg. In data set [3] (PO, 2.5 mg/kg), the F is reported as 100.7%, the AUC(0-inf) came to 49300 ng·h/mL, the AUC(0-t) worked out at 45500 ng·h/mL and the highest level (Cmax) was 5770 ng/mL. Besides, the IC50 in data set [4] was 1.85 nM.
